The values that follow come from US20180216124A1, “METHOD OF PRODUCING PLASTID TRANSFORMANTS” (HONDA MOTOR CO., LTD., priority 2015, published 2018).

Where only a bound is given, the exact number is not on record here.

Assay [1] has as its system switchgrass calluses. The assay can be described thus: Sensitivity of switchgrass calluses to drugs: callus growth on PVC medium. In kind it is cell-based. The procedure: (§1) Skins of mature seeds of switchgrass variety “Alamo” were removed by 60% (v/v) sulfate treatment, and a fungicide for seeds was used for sterilization. […] The seeds were cultured for a few months in the dark at 28° C. Then, grown calluses were classified as independent strains for each derived seed. Strains in which a compact callus expected to have a regeneration ability was grown were selected and cultured.
(§2) In order to develop a new screening method that is appropriate for plastid transformation, the calluses of the regeneration strains prepared in the above <1> were used to examine sensitivity of wild type plant cells to various drugs.

For assay [2], the system named is switchgrass calluses. The assay can be described thus: Sensitivity of switchgrass calluses to drugs: plant (shoot) regeneration on PVS medium. In kind it is cell-based. As to conditions: switchgrass callus on PVS medium. The procedure:
as §1, §2

Assay [3] concerns wild type of rice variety Nipponbare. As to conditions: MS-NK medium containing sodium nitrite 400 mg/L. The procedure:
PSR1 genes were introduced into plastids of rice variety Nipponbare and rice variety Koshihikari and transformants were screened using sodium nitrite. Specifically, it was performed as follows. An MS-NK medium (Nishimura et al., Nature Protocols, 2006, Vol. 1, p. 2796-2802) used as a regeneration medium contained nitrate nitrogen, originally.

Assay [4] relates to wild type switchgrass calluses. As to conditions: 28° C. The procedure:
In the sodium nitrite screening, in order to determine a screening concentration more effectively, wild type switchgrasses were cultured under sodium nitrite conditions of different concentrations, and the sensitivity of wild type cells to sodium nitrite was examined.
Specifically, a mass of 14 switchgrass calluses remained for each plate on PVC media and PVS media containing sodium nitrite having a concentration of 0, 0.25, 0.5, 0.6, 0.7, 0.8, 0.9, or 1.0 g/L, and three plates of each of which were prepared for each concentration condition. The PVC media were cultured in the dark at 28° C. and the PVS media were cultured under light at 28° C. for 4 weeks. After culture, the number of grown calluses was measured in the PVC media, and the number of calluses from which plants were regenerated was measured in the PVS media. The growth rate and the regeneration rate were calculated.

Where [5] appears, read: PVC media, dark, 4 weeks (FIG. 2A).
The mark [6] stands for this setting: PVS media, light, 4 weeks (FIG. 2B).

As to `C[C@@H](Oc1ccc(Oc2ncc(Cl)cc2F)cc1)C(=O)O` [Clodinafop], the “Callus growth: supression concentration” value in assay [1] was “(>1.0 μM)”.
Regarding `O=C(N[C@H](CO)[C@H](O)c1ccc([N+](=O)[O-])cc1)C(Cl)Cl` [Cloramphenicol], in assay [2], the “Shoot regeneration: supression concentration” value (“Shoot regeneration” below) is given as “(>15 mg/L)”. The “Callus growth: supression concentration” value in assay [1] is given as “(>30 mg/L)”.
Consider `CCCC(=NOCC)C1=C(O)CC(C2CCCSC2)CC1=O` (centres unmarked) [Cycloxydim], for which, in assay [2], the “Shoot regeneration” value was “(>0.1 μM)”. Besides, in assay [1], the “Callus growth: supression concentration” value is reported as “(>1.5 μM)”.
With `CCCCOC(=O)C(C)Oc1ccc(Oc2ccc(C(F)(F)F)cn2)cc1` (centres unmarked) [Fluazifop-butyl], in assay [2], the “Shoot regeneration” value is on record as “(>0.1 μM)”. Moreover, the “Callus growth: supression concentration” value in assay [1] is listed as “(>1.0 μM)”.
As for `CN[C@@H]1[C@@H](O)[C@@H](O[C@@H]2[C@@H](O)[C@H](O[C@H]3O[C@H]([C@@H](C)O)[C@@H](O)[C@H](O)[C@H]3N)[C@@H](N)C[C@H]2N)OC[C@]1(C)O` [G418], the “Shoot regeneration” value in assay [2] is “(>25 mg/L)”. Moreover, the “Callus growth: supression concentration” value in assay [1] was “(>25 mg/L)”.
As to `O=C(O)CNCP(=O)(O)O` [Glyphosate], in assay [2], the “Shoot regeneration” value is “(>0.1 mM)”. The “Callus growth: supression concentration” value in assay [1] is on record as “(>0.1 mM)”.
For `CC(Oc1ccc(Oc2ncc(C(F)(F)F)cc2Cl)cc1)C(=O)O` (centres unmarked) [Haloxyfop], the “Callus growth: supression concentration” value in assay [1] was “(>1.0 μM)”.
In the case of `NC[C@H]1O[C@H](O[C@H]2[C@H](O)[C@@H](O[C@H]3O[C@H](CO)[C@@H](O)[C@H](N)[C@H]3O)[C@H](N)C[C@@H]2N)[C@H](O)[C@@H](O)[C@@H]1O` [Kanamycin], the “Shoot regeneration” value in assay [2] is recorded as “(>100 mg/L)”. The “Callus growth: supression concentration” value in assay [1] is “(>200 mg/L)”.
Consider `C[n+]1ccc(-c2cc[n+](C)cc2)cc1` [Methylviologen], for which the “Shoot regeneration” value in assay [2] is listed as “(>1.0 μM)”. Further, the “Callus growth: supression concentration” value in assay [1] is listed as “(>1.0 μM)”.
Take `CCc1cc(C)cc(CC)c1-c1c(OC(=O)C(C)(C)C)n2n(c1=O)CCOCC2` [Pinoxaden]: the “Callus growth: supression concentration” value in assay [1] is reported as “(>1.0 μM)”.
In the case of `O=NO` [Sodium nitrite], the “Shoot regeneration” value in assay [2] is given as “(>800 mg/L)”. Moreover, the “Regeneration ability of wild type rice” value in assay [3] is “had a regeneration ability”. For the same molecule, in assay [4] (setting [5]), the “Concentration at which callus growth was completely suppressed” value is given as at least 0.9 g/L and the “Concentration at which callus growth was sharply reduced” value is given as 0.7 g/L. For the same molecule, in assay [4] (setting [6]), the “Concentration at which plant regeneration was completely suppressed” value stood at 1.0 g/L and the “Concentration at which plant regeneration was sharply reduced” value stood at 0.8 g/L. Also, the “Callus growth: supression concentration” value in assay [1] is on record as “(>800 mg/L)”.
`[H]/N=C(/N)N[C@H]1[C@H](O)[C@@H](O)[C@H](O[C@@H]2O[C@@H](C)[C@](O)(C=O)[C@H]2O[C@@H]2O[C@@H](CO)[C@H](O)[C@@H](O)[C@@H]2NC)[C@@H](N/C(N)=N\[H])[C@@H]1O` [Streptomycin]: in assay [2], the “Shoot regeneration” value is recorded as “(>400 mg/L)”.
For `CN(C)[C@@H]1C(O)=C(C(N)=O)C(=O)[C@@]2(O)C(O)=C3C(=O)c4c(O)cccc4[C@@](C)(O)[C@H]3C[C@@H]12` [Tetracycline], the “Shoot regeneration” value in assay [2] is “(>60 mg/L)”. Besides, the “Callus growth: supression concentration” value in assay [1] is on record as “(>40 mg/L)”.
Regarding Bleocin, the “Shoot regeneration” value in assay [2] is “(>10 mg/L)”. Further, the “Callus growth: supression concentration” value in assay [1] was “(>25 mg/L)”.
